In general, EC50 refers to the concentration at which the effect is half-maximal. The term Ki denotes a dissociation constant, usually derived from enzyme kinetics or from competition with a known ligand. Low readings indicate tighter binding, high ones weaker binding.

For 30 molecules, Activity, EC50 and Ki results are on record in ChEMBL document CHEMBL1138225, “Synthesis and structure-activity relationships of 3,8-diazabicyclo[4.2.0]octane ligands, potent nicotinic acetylcholine receptor agonists” (J Med Chem, 2006).

The target in experiment [1] is T1, Neuronal acetylcholine receptor; alpha3/beta4 (Homo sapiens, UniProt P30926+P32297). The experiment can be described thus: Maximal agonist activity at human alpha-3-beta-4 ACHR expressed in HEK293 cells assessed as change in intracellular calcium concentration by FLIPR relative to nicotine. The format is functional, cell-based.
T1 sequence (P30926 whole entry): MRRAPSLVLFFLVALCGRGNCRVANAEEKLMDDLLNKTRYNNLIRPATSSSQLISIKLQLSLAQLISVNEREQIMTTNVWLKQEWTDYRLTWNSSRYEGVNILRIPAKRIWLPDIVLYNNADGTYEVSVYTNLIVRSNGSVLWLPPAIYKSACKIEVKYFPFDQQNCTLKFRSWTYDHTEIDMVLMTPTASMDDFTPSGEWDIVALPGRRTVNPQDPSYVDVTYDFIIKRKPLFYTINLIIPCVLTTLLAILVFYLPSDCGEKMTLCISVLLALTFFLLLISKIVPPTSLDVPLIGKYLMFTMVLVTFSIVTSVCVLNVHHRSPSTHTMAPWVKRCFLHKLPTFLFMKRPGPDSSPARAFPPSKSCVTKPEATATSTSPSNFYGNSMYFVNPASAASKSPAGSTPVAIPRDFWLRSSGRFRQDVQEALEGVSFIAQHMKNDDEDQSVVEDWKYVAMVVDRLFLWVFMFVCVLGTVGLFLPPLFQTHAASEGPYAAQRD
T1 sequence (P32297 whole entry): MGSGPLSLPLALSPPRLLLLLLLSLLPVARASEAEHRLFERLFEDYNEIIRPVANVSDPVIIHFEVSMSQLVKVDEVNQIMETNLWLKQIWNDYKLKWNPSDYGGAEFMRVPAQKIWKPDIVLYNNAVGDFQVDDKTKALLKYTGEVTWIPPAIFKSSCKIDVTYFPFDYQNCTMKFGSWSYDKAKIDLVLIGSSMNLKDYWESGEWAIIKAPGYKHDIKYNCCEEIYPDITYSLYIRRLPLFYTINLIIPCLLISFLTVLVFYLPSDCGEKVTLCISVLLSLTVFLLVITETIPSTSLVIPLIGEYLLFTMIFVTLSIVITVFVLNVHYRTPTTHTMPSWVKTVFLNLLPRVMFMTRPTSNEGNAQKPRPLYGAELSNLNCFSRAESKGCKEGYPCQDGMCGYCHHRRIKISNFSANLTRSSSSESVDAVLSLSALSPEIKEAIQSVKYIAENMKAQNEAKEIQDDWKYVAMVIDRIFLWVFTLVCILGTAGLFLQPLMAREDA
For experiment [2], the target named is T1, Neuronal acetylcholine receptor; alpha3/beta4. In words: Agonist activity at human alpha-3-beta-4 ACHR expressed in HEK293 cells assessed as change in intracellular calcium concentration by FLIPR. The format is functional, cell-based. A general note: Calcium assays in cells follow changes in intracellular calcium, usually with a dye or a luminescent sensor.

Experiment [3] has as its target T2, Neuronal acetylcholine receptor; alpha4/beta2 (Homo sapiens, UniProt P17787+P43681). In words: Agonist activity at human alpha4beta2 ACHR expressed in HEK293 cells assessed as change in intracellular calcium concentration by FLIPR. Type of experiment: functional, cell-based.
Experiment [4] addresses T2, Neuronal acetylcholine receptor; alpha4/beta2. In words: Maximal agonist activity on human alpha-4-beta-2 ACHR expressed in HEK293 cells assessed as change in intracellular calcium concentration by FLIPR relative to nicotine. Type of experiment: functional, cell-based.
The target of experiment [5] is Neuronal acetylcholine receptor; alpha4/beta2 (Rattus norvegicus, UniProt P09483+P12390). In words: Displacement of [3H]cytisine from alpha-4-beta-2 ACHR in rat brain homogenate. The format is tissue-based. (Loss of bound radioactivity is the signal in a displacement assay; it reports binding, not function.)
Sequence of Neuronal acetylcholine receptor; alpha4/beta2 (Rattus norvegicus, UniProt P09483+P12390) (P09483 whole entry): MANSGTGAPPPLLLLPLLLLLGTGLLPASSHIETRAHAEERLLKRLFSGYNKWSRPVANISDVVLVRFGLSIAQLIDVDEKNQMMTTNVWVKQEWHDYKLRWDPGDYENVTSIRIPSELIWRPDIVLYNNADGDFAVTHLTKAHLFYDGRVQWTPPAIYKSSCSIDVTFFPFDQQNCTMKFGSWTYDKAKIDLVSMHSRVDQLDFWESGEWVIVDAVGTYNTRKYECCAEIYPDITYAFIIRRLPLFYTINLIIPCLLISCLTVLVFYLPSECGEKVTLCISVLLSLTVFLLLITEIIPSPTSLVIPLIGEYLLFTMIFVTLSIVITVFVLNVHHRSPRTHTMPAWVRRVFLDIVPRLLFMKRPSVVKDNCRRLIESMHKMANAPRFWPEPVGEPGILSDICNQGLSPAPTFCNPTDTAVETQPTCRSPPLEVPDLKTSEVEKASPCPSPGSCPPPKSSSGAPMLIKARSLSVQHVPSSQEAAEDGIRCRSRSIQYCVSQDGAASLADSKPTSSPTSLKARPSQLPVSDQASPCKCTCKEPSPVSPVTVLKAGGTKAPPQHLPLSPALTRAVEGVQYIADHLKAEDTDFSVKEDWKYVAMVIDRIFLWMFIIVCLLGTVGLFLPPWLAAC
Sequence of Neuronal acetylcholine receptor; alpha4/beta2 (Rattus norvegicus, UniProt P09483+P12390) (P12390 whole entry): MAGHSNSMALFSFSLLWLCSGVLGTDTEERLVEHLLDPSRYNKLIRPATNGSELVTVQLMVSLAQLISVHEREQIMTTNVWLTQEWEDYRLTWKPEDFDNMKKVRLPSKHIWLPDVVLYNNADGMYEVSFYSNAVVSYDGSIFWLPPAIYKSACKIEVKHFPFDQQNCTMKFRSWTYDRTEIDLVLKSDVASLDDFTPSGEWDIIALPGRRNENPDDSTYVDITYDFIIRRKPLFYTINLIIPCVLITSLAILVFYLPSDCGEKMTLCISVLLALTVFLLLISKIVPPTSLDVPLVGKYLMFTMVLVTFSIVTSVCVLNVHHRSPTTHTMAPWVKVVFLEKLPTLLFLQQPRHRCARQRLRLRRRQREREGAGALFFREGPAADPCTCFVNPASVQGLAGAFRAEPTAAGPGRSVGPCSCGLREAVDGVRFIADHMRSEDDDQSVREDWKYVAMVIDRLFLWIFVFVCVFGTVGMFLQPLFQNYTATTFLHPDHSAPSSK

T2 sequence (P17787 whole entry): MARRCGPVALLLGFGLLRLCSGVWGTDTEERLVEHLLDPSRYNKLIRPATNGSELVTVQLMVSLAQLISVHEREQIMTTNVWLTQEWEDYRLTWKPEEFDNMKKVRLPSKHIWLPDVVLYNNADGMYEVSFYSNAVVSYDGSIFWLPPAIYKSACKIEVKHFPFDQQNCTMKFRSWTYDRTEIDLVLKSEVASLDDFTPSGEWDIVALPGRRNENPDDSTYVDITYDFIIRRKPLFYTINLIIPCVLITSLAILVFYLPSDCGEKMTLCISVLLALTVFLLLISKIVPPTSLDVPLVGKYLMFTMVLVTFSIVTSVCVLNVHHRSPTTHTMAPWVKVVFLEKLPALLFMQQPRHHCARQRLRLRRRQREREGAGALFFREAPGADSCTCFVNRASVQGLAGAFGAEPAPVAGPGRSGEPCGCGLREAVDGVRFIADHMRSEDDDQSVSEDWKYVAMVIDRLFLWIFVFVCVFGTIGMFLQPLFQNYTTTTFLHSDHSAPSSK
T2 sequence (P43681 whole entry): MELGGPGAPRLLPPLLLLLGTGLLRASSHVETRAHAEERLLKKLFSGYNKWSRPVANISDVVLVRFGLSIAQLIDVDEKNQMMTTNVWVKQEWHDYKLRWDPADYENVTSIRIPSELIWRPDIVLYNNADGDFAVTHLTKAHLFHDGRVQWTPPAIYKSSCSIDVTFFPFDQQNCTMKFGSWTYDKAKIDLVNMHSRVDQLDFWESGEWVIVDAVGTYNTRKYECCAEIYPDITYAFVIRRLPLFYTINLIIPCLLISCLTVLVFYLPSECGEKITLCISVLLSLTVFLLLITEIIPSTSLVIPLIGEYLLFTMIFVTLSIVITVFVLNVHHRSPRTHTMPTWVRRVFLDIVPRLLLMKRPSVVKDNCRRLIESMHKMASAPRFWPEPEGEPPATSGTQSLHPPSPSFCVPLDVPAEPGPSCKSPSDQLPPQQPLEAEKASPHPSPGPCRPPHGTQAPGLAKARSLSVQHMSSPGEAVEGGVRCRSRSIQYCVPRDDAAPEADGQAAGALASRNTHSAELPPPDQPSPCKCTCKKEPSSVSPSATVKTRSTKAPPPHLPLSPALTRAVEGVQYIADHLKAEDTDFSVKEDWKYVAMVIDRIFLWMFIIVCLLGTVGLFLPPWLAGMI

For the molecule `N#Cc1cc(N2C[C@H]3CCNC[C@H]32)cnc1Br`, the Activity in experiment [1] is 100%; in experiment [4], 157%. Moreover, the EC50 in experiment [2] stood at 238 nM; in experiment [3], 172 nM. Besides, in experiment [5], the Ki was determined as 0.3 nM.
For `N#Cc1cc(N2CC[C@H]3CN[C@H]3C2)cnc1Br` the same measures were 133%, 215%, 4.4 nM, 6.1 nM and 0.027 nM.
In the case of `c1cncc(N2CC[C@H]3CN[C@H]3C2)c1`, the Activity in experiment [1] came to 121%; in experiment [4], 171%. In addition, the values for the EC50 in experiment [2] and in experiment [3] were 48 nM and 71 nM, respectively. In addition, in experiment [5], the affinity corresponds to a Ki of 0.035 nM.
`Clc1cc(N2C[C@H]3CCNC[C@H]32)cnc1Cl`: the Activity is 103% in experiment [1] and 127% in experiment [4]. For the same molecule, the EC50 came to 339 nM in experiment [2] and 176 nM in experiment [3]. The molecule also came in with a Ki in experiment [5] of 0.3 nM.
For the molecule `Clc1cc(N2CC[C@H]3CN[C@H]3C2)cnc1Cl`, the values for the Activity in experiment [1] and in experiment [4] were 132% and 221%, respectively. Besides, the EC50 in experiment [2] turned out to be 9.9 nM; in experiment [3], 12 nM. This molecule also gave an inhibition constant Ki in experiment [5] of 0.025 nM.
For the molecule `c1cncc(N2CC[C@@H]3CN[C@@H]3C2)c1`, the Activity in experiment [1] came to 118%; in experiment [4], 112%. The EC50 came to 260 nM in experiment [2] and 330 nM in experiment [3]. In experiment [5], the Ki was 0.059 nM.
The corresponding values for `COc1cc(N2CC[C@H]3CN[C@H]3C2)cnc1Br` are 120%, 217%, 8 nM, 21 nM and 0.027 nM.
The corresponding values for `c1ncc(N2CC[C@H]3CN[C@H]3C2)cn1` are 121%, 181%, 108 nM, 350 nM and 0.04 nM.
Regarding `Brc1cncc(N2CC[C@@H]3CN[C@@H]3C2)c1` (single isomer, unassigned), the figures for the Activity in experiment [1] and in experiment [4] were 91% and 58%, respectively. The results for the EC50 in experiment [2] and in experiment [3] were 950 nM and 1000 nM, respectively. For the same molecule, the inhibition constant Ki in experiment [5] is 0.053 nM.
For `COc1cc(N2C[C@@H]3CCNC[C@@H]32)cnc1Br` the same measures were 84%, 65%, 2980 nM, 1690 nM and 1.4 nM.
The corresponding values for `O=[N+]([O-])c1ccc(N2CC[C@H]3CN[C@H]3C2)cn1` are 119%, 196%, 390 nM, 100 nM and 1.5 nM.
Regarding `Cc1cc(N2CC[C@H]3CN[C@H]3C2)cnc1Cl`, the Activity worked out at 123% in experiment [1] and 207% in experiment [4]. Besides, the EC50 in experiment [2] and in experiment [3] was 7.2 nM throughout. In experiment [5], this molecule returned a Ki of 0.031 nM.
As for `COc1ccc(N2CC[C@H]3CN[C@H]3C2)cn1`, the values for the Activity in experiment [1] and in experiment [4] were 88% and 96%, respectively. Moreover, the 50% effective concentration (EC50) in experiment [2] is 1100 nM; in experiment [3], 2200 nM. The Ki in experiment [5] stood at 0.98 nM.
In the case of `COc1cc(N2CC[C@@H]3CN[C@@H]3C2)cnc1Br`, the Activity in experiment [1] was determined as 108%; in experiment [4] it was 40%. For the same molecule, the EC50 in experiment [2] is 160 nM; in experiment [3] it was 360 nM. In addition, the affinity in experiment [5], expressed as Ki, was 0.069 nM.
Regarding `N#Cc1cncc(N2C[C@H]3CCNC[C@H]32)c1`, the Activity in experiment [1] was determined as 71%; in experiment [4], 83%. Besides, the concentration giving a half-maximal response (EC50) in experiment [2] worked out at 5560 nM; in experiment [3], 1930 nM. Affinity in experiment [5] was put at a Ki of 2.6 nM.
For `Clc1ccc(N2C[C@H]3CCNC[C@H]32)cn1` the same measures were 93%, 102%, 1520 nM, 216 nM and 0.8 nM.
The corresponding values for `Clc1ccc(N2CC[C@H]3CN[C@H]3C2)nn1` are 128%, 222%, 64.8 nM, 78.3 nM and 0.15 nM.
`Brc1cncc(N2CC[C@H]3CN[C@H]3C2)c1`: the Activity in experiment [1] amounted to 122%; in experiment [4], 148%. Besides, the EC50 in experiment [2] was 76 nM; in experiment [3], 150 nM. The same molecule came in with a Ki in experiment [5] of 0.024 nM.
On to `Clc1ccc(N2CC[C@@H]3CN[C@@H]3C2)cn1`, for which the Activity came to 125% in experiment [1] and 130% in experiment [4]. Also, the results for the EC50 in experiment [2] and in experiment [3] were 25 nM and 24 nM, respectively. Further, in experiment [5], affinity was put at a Ki of 0.032 nM.
For `CCOc1cncc(N2CC[C@H]3CN[C@H]3C2)c1`, the Activity in experiment [1] was 103%; in experiment [4], 116%. Moreover, the EC50 in experiment [2] came out at 124 nM; in experiment [3], 620 nM. Further, the Ki in experiment [5] came out at 0.052 nM.
On to `c1ncc(N2C[C@@H]3CCNC[C@@H]32)cn1` (single isomer, unassigned), for which the Activity is 93% in experiment [1] and 104% in experiment [4]. For the same molecule, the results for the EC50 in experiment [2] and in experiment [3] were 9940 nM and 8420 nM, respectively. For the same molecule, the Ki in experiment [5] turned out to be 1.6 nM.
The corresponding values for `COc1cc(N2C[C@H]3CCNC[C@H]32)cnc1Br` are 98%, 120%, 202 nM, 200 nM and 0.085 nM.
Turning to `NC(=O)c1cc(N2C[C@H]3CCNC[C@H]32)cnc1Br`, the values for the Activity in experiment [1] and in experiment [4] were 90% and 133%, respectively. For the same molecule, the EC50 in experiment [2] was 7460 nM; in experiment [3], 340 nM.
As for `COc1cncc(N2C[C@@H]3CCNC[C@@H]32)c1`, the Activity in experiment [1] was 47%; in experiment [4], 44%. In addition, the EC50 in experiment [2] turned out to be 63500 nM; in experiment [3] it was 7690 nM. The molecule also gave a Ki in experiment [5] of 4.4 nM.
For `COc1ccc(N2CC[C@@H]3CN[C@@H]3C2)cn1` the same measures were 93%, 54%, 2400 nM, 4980 nM and 2.7 nM.
The corresponding values for `CCOc1cncc(N2CC[C@@H]3CN[C@@H]3C2)c1` are 86%, 18%, 2800 nM, 1350 nM and 0.16 nM.
For `N/C(=N/O)c1cncc(N2CC[C@@H]3CN[C@@H]3C2)c1`, the values for the Activity in experiment [1] and in experiment [4] were 99% and 194%, respectively.
`c1ncc(N2CC[C@@H]3CN[C@@H]3C2)cn1`: the figures for the Activity in experiment [1] and in experiment [4] were 106% and 79%, respectively. The EC50 in experiment [2] was found to be 1020 nM; in experiment [3], 4390 nM. This molecule also yielded a Ki in experiment [5] of 0.2 nM.
In the case of `N#Cc1cncc(N2C[C@@H]3CCNC[C@@H]32)c1`, the Activity in experiment [1] was determined as 91%; in experiment [4], 64%. The EC50 came to 2560 nM in experiment [2] and 2190 nM in experiment [3]. Also, affinity in experiment [5] was put at a Ki of 0.5 nM.
`c1cncc(N2C[C@H]3CCNC[C@H]32)c1`: the Activity in experiment [1] is 97%; in experiment [4], 84%. Further, the figures for the EC50 in experiment [2] and in experiment [3] were 1540 nM and 1400 nM, respectively.
